Numbers after ± are expanded uncertainties.
Tests used:
[1] = 298.15 K; 101.33 kPa; Liquid; Vibrating tube method
[2] = refractive index (Na D-line) (dimensionless); details: 298.15 K; 101.33 kPa; Liquid; Standard Abbe refractometry

C1COCCO1 [1,4-dioxane] gave a mass density [1] of 1028.12 ± 0.11 kg/m3 and a refractive index [2] of 1.4202 ± 0.0004.

Work on C1CCOC1 [tetrahydrofuran] yielded a mass density [1] of 882.03 ± 0.1 kg/m3 and a refractive index [2] of 1.4048 ± 0.0004.

CC(C)=O [acetone] showed a mass density [1] of 784.65 ± 0.12 kg/m3 and a refractive index [2] of 1.3563 ± 0.0004.
